The source of these data is PMC4340763 (Journal of immunology (Baltimore, Md. : 1950), 2015).

Peptide text beside a SMILES is read from it.

The first experiment deals with soluble HLA-A*0201 molecules (Homo sapiens, UniProt P04439, D140Y/D185E/D98H/E176V/E277Q/G131W/G231S/I119V/I121R/I166T/I218V/L300P/L318F/N151K/N90K/P208A/P217A/Q86G/Q94H/R138H/R169H/T345S). Nature of the experiment: Binding affinity of synthetic peptides to soluble HLA-A*0201 molecules.
Settings: not given
In general, IC50 refers to the concentration that inhibits the measured activity by half. Low readings indicate inhibition by little substance, high ones a need for much substance. Broadly, the Kd is the concentration at which binding is half-saturated. The compound `CC(C)C[C@H](NC(=O)[C@@H](N)Cc1ccccc1)C(=O)N[C@H](C(=O)N[C@@H](CS)C(=O)N[C@H](C(=O)N[C@@H](CC(=O)O)C(=O)N[C@@H](CCCNC(=N)N)C(=O)N[C@@H](CO)C(=O)N[C@H](C(=O)O)C(C)C)[C@@H](C)O)[C@@H](C)O` [VP11/12_66–74] (H-FLTCTDRSV-OH) showed an IC50 of 83 nM and a Kd of 81 nM.

In turn, `CC[C@H](C)[C@H](NC(=O)[C@@H](N)CCCNC(=N)N)C(=O)N[C@@H](CCC(N)=O)C(=O)N[C@@H](CCC(N)=O)C(=O)N[C@@H](Cc1ccc(O)cc1)C(=O)N[C@@H](CCSC)C(=O)N[C@@H](Cc1ccccc1)C(=O)N[C@@H](Cc1ccccc1)C(=O)N[C@@H](CCSC)C(=O)O` [VP11/12_197–205] (H-RIQQYMFFM-OH) displayed an IC50 of 81 nM and a Kd of 83 nM.

On to `CC(C)C[C@H](NC(=O)[C@H](CC(C)C)NC(=O)[C@H](CCC(=O)O)NC(=O)[C@H](CC(N)=O)NC(=O)[C@H](CC(C)C)NC(=O)[C@@H](N)CCCNC(=N)N)C(=O)N[C@@H](C)C(=O)N[C@@H](Cc1ccc(O)cc1)C(=O)N[C@H](C(=O)O)C(C)C` [VP11/12_220–228] (H-RLNELLAYV-OH), for which the IC50 stood at 709 nM and the Kd came out at 709 nM.

Take `CSCC[C@H](N)C(=O)N[C@@H](CC(C)C)C(=O)N[C@@H](Cc1c[nH]c2ccccc12)C(=O)N[C@H](C(=O)N[C@H](C(=O)N[C@@H](CC(=O)O)C(=O)N[C@@H](CCCCN)C(=O)N[C@@H](Cc1c[nH]cn1)C(=O)N[C@H](C(=O)O)C(C)C)[C@@H](C)O)[C@@H](C)O` [VP11/12_238–246] (H-MLWTTDKHV-OH): the IC50 is 1290 nM.

Consider `CC(C)C[C@H](NC(=O)[C@H](CCCCN)NC(=O)[C@@H](NC(=O)[C@H](CC(C)C)NC(=O)[C@H](CC(C)C)NC(=O)[C@H](C)NC(=O)[C@H](CO)NC(=O)[C@H](CC(C)C)NC(=O)[C@H](C)N)[C@@H](C)O)C(=O)O` [VP11/12_702–710] (H-ALSALLTKL-OH), for which the IC50 was 313 nM and binding was put at a Kd of 313 nM.

The same experiment, now with this note: soluble HLA-A*0201 molecules.
Take ILTQYWKYL [VP11/12_127–135]: the “binding affinity to soluble HLA-A*0201 molecules (in words)” value is reported as “did not bind”.
